In brackets after ≈: the same amount, converted by molar mass.
Columns and labels:
Candida albicans [1] = experiment: Growth inhibition of Candida albicans isolate CaCi-2 assessed as relative fungal growth in presence of Fluconazole after 48 hrs by Almar blue fluorometry; assay type: functional, organism-based; settings: isolate CaCi-2, 48 h
Candida albicans [2] = experiment: Growth inhibition of Candida albicans isolate CaCi-8 assessed as relative fungal growth in presence of Fluconazole after 48 hrs by Almar blue fluorometry; assay type: functional, organism-based; settings: isolate CaCi-8, 48 h
[3] = Aqueous solubility of the compound in phosphate buffered saline; assay type: physicochemical
Candida albicans [4] = experiment: Antifungal activity against Candida albicans CaCi-8 clinical isolate; assay type: functional
Candida albicans [5] = experiment: Antifungal activity against Candida albicans CaCi-2 clinical isolate; assay type: functional
[6] = Inhibition of calcineurin signaling pathway in Candida albicans
Candida albicans [7] = experiment: Growth inhibition of Candida albicans isolate CaCi-8 at 1 uM after 48 hrs by Almar blue fluorometry in presence of Fluconazole; assay type: functional; settings: isolate CaCi-8, 48 h, read-out: GI
[8] = Inhibition of HSP90 signaling pathway in Candida albicans
Candida albicans [9] = experiment: Growth inhibition of Candida albicans isolate CaCi-2 at 1 uM after 48 hrs by Almar blue fluorimetry in presence of fluconazole; assay type: functional; settings: isolate CaCi-2, 48 h, read-out: GI

Compound | IC50 (Candida albicans [1]) | IC50 (Candida albicans [2]) | other results
O=C(c1ccc(Cl)cc1)N1CCN(c2ccncc2)CC1 | 7.3 µM | > 26 µM | –
O=C(c1csc2ccccc12)N1CCN(c2ccnc3cc(Cl)ccc23)CC1 | 1.9 µM | 4 µM | solubility ([3]; buffer): soluble
COc1ccc2c(N3CCN(C(=O)c4ccc(Cl)cc4)CC3)ccnc2c1 | 4.8 µM | 13.7 µM | –
O=C(c1ccc(Cl)cc1)N1CCN(c2ncccn2)CC1 | 7.1 µM | 18.1 µM | –
O=C(c1ccc(Cl)nc1)N1CCN(c2ccnc3cc(Cl)ccc23)CC1 | 6.7 µM | 10.9 µM | solubility ([3]; buffer): soluble
O=C(c1ccc(Cl)cc1)N1CCN(c2ccnc3ccc(Cl)cc23)CC1 | 2.4 µM | 6.3 µM | –
O=C(C1CCCC1)N1CCN(c2ccnc3cc(Cl)ccc23)CC1 | 3.6 µM | 5.3 µM | –
O=C(c1ccc(F)cc1)N1CCN(c2ccnc3cc(Cl)ccc23)CC1 | 3.6 µM | 4.2 µM | –
CC(C)C(=O)N1CCN(c2ccnc3cc(Cl)ccc23)CC1 | 7.2 µM | > 26 µM | –
O=C(c1ccc(Cl)c(Cl)c1)N1CCN(c2ccnc3cc(Cl)ccc23)CC1 | 1 µM | 2.1 µM | –
O=C(c1ccc(Cl)cn1)N1CCN(c2ccnc3cc(Cl)ccc23)CC1 | 4.9 µM | 4.1 µM | solubility ([3]; buffer): soluble
Cc1ccc(C(=O)N2CCN(c3ccnc4cc(Cl)ccc34)CC2)cc1 | 2.3 µM | 3.1 µM | –
CCCC(=O)N1CCN(c2ccnc3cc(Cl)ccc23)CC1 | 6.3 µM | 15 µM | –
O=C(c1ccc(Cl)cc1)N1CCN(c2ccnc3ccccc23)CC1 | 5.7 µM | 14.7 µM | –
O=C(c1ccc(Cl)cc1)N1CCN(c2cccnc2)CC1 | 7.3 µM | > 26 µM | –
O=C(c1ccc(Cl)cc1)N1CCN(c2ccccn2)CC1 | > 10 µM | 24 µM | –

Compound | IC50 (Candida albicans [1]) | IC50 (Candida albicans [2]) | other results
O=C(c1ccc(Cl)cc1)N1CCN(c2nc3ccccc3s2)CC1 | 5.5 µM | 10.8 µM | –
O=C(c1ccc(Cl)cc1)N1CCN(c2cnccn2)CC1 | 9 µM | 22.2 µM | –
O=C(c1cccc(Cl)c1)N1CCN(c2ccnc3cc(Cl)ccc23)CC1 | 4.4 µM | 7.8 µM | –
Cn1ccnc1N1CCN(C(=O)c2ccc(Cl)cc2)CC1 | 6.2 µM | > 26 µM | –
O=C(C1CCCCC1)N1CCN(c2ccnc3cc(Cl)ccc23)CC1 | 1.7 µM | 4 µM | –
O=C(c1ccccc1Cl)N1CCN(c2ccnc3cc(Cl)ccc23)CC1 | 7.3 µM | 14.1 µM | –
O=C(Nc1ccc(Cl)cc1)N1CCN(c2ccnc3cc(Cl)ccc23)CC1 | 4.2 µM | 2.3 µM | –
O=C(c1ccc(Cl)cc1)N1CCN(c2nccs2)CC1 | 6.9 µM | 18.9 µM | –
Cc1ccc(N2CCN(C(=O)c3ccc(Cl)cc3)CC2)nn1 | 8.5 µM | 20.6 µM | –
OC(Cn1cncn1)(Cn1cncn1)c1ccc(F)cc1F [FLUCONAZOLE] | – | – | MIC (Candida albicans [4]): 26 µM (≈ 7.96 µg/mL); MIC (Candida albicans [5]): 6.5 µM (≈ 1.99 µg/mL)
COc1ccc(C(=O)N2CCN(c3ccnc4cc(Cl)ccc34)CC2)cc1 | 5.3 µM | 16.8 µM | –
Cc1cc(N2CCN(C(=O)c3ccc(Cl)cc3)CC2)c2ccccc2n1 | 7.3 µM | > 26 µM | –
O=C(c1ccc(Cl)cc1)N1CCN(c2ccnc3cc(Cl)ccc23)CC1 | 0.7 µM | 1.3 µM | IC50 [6]: > 26 µM; solubility ([3]; phosphate buffered saline, read-out: solubility): < 5 µM; inhibition of growth at 1 µM (Candida albicans [7]): 97%; IC50 [8]: > 26 µM; inhibition of growth at 1 µM (Candida albicans [9]): 97%
O=C(c1ccc(Cl)cc1)N1CCN(c2ncnc3ccccc23)CC1 | 4.8 µM | 11 µM | –
O=C(c1ccc(Cl)cc1)N1CCN(c2ccc(Cl)cc2)CC1 | 8.7 µM | 19 µM | –
O=C(c1ccccc1)N1CCN(c2ccnc3cc(Cl)ccc23)CC1 | 4.4 µM | 6.1 µM | –

From ChEMBL document CHEMBL1821708, “Piperazinyl quinolines as chemosensitizers to increase fluconazole susceptibility of Candida albicans clinical isolates” (Bioorg Med Chem Lett, 2011)
